Read-outs that look alike come from different tables or passages of the source.
Target: T1, ASIC1a (Homo sapiens, UniProt P78348)
T1 sequence (P78348 1-528): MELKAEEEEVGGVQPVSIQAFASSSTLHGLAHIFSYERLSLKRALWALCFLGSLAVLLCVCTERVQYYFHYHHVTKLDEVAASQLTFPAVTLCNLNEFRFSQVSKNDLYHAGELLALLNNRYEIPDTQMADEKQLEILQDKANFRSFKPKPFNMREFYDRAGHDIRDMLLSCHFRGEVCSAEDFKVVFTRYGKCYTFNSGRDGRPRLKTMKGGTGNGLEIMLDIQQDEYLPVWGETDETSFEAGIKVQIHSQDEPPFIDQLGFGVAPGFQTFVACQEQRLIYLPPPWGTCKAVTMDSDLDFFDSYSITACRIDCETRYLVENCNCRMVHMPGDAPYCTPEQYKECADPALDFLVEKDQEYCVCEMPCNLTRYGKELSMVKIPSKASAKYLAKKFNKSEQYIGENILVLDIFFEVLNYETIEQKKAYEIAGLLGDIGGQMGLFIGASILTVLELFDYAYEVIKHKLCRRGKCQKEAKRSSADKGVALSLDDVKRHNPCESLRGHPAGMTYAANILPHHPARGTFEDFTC
Test: Whole cell patch clamp in HEK293 cells transfected with hASIC1a
Format: cell-based
Set-up: expressed in transfected cells; host or cells: Xenopus laevis oocytes, nuclear microinjection of an expression vector such as pCDNA3
Description: Screening and Bioanalysis of ASIC Antagonists in Heterologous Expression Systems
This example describes another in vitro assessment of the activity of the compounds of the present invention.
Another example of an in vitro assessment method consists of using mammalian heterologous expression systems, which are known to the skilled in the art, and include a variety of mammalian cell lines such as COS, HEK, e.g., HEK293 and/or CHO, cells. Cell lines are transfected with gated ion channel(s) and used to perform electrophysiology as follows:
All experiments are performed at room temperature (20-25° C.) in voltage clamp using conventional whole cell patch clamp methods (Neher, E., et al. (1978) Pfluegers Arch 375:219-228). […]
Coverslips with the cells are transferred to a 15 μl experimental chamber mounted on the stage of an inverted microscope (IMT-2, Olympus) supplied with Nomarski optics. […] The cells are held at a holding voltage of −60 mV and at the start of each experiment the current is continuously measured for 45 s to ensure a stable baseline. […] Current amplitudes are measured at the peak of the responses, and effect of the compounds is calculated as the amplitude at compound equilibrium divided by the amplitude of the current evoked by the pulse just before the compound is included. […]

Row | Compound | IC50 | IC50 (HEK293 cells, whole cell patch clamp, six point dose-response, read-out: IC50, inhibition of acid-induced hASIC1a activity)
1 | CCN1CCc2c(-c3cc(Cl)ccc3OC)cc(C#N)c(N)c2C1 [Compound 44] | 5.1 µM | 
2 | CCN1CCc2c(-c3ccccc3)cc(C#N)c(N)c2C1 [Compound 12, 8-Amino-2-ethyl-5-phenyl-1,2,3,4-tetrahydro-isoquinoline-7-carbonitrile] |  | 4 µM

From US20080004282A1, “Compositions and methods for modulating gated ion channels” (PainCeptor Pharma Corporation, priority 2006, published 2008)
